Assays:
[1] = system: green foxtail; test: Test F preemergence test; assay type: in vivo, Setaria viridis; details: scale 0 to 100
Source text: (§1) Seeds of plant species selected from bermudagrass (Cynodon dactylon), Surinam grass (Brachiaria decumbens), large crabgrass (Digitaria sanguinalis), green foxtail (Setaria viridis), goosegrass (Eleusine indica), johnsongrass (Sorghum halepense), kochia (Kochia scoparia), pitted morningglory (Ipomoea lacunosa), purple nutsedge (Cyperus rotundus), common ragweed (Ambrosia elation), mustard (Brassica nigra), guineagrass (Panicum maximum), […] (Paspalum dilatatum), barnyardgrass (Echinochloa crus-galli), southern sandbur (Cenchrus echinatus), common sowthistle (Sonchus oleraceous), prickly […] spinosa), Italian ryegrass (Lolium multiflorum), common purslane (Portulaca oleracea), broadleaf signalgrass (Brachiaria platyphylla), common groundsel (Senecio vulgaris), common chickweed (Stellaria media), Virginia dayflower (Commelina virginica), annual bluegrass (Poa annua), naked crabgrass (Digitaria nuda), […] cochinchinensis), quackgrass (Elytrigia repens), Canada horseweed (Conyza canadensis), field bindweed (Convolvulus arvensis), […] (Bidens bipinnata), common mallow (Malva sylvestris), Russian thistle (Salsola kali), and sugarcane (Saccharum officinarum) were planted and treated preemergence with test chemicals formulated in a non-phytotoxic solvent mixture which included a surfactant. At a different time, sugarcane was treated with postemergence applications of some of the test chemicals formulated in the same manner. Plants were approximately 3- to 4-leaf stage for the postemergence treatments. Treated plants and controls were maintained in a greenhouse for 14 to 21 days, after which time all species were compared to controls and visually evaluated. […] A dash (-) response means no test result.

[2] = system: velvetleaf; test: Test A pre-/postemergence greenhouse test; assay type: in vivo, Abutilon theophrasti; details: for Velvetleaf plant response rating: 0 to 100 scale; for Plant response rating, Velvetleaf: 0 to 100 scale where 0 is no effect and 100 is complete control
Procedure, shortened: (§2)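 Test compounds in non-phytotoxic solvent with surfactant were applied as a preemergence soil spray to seeded loam/sand pots and, concurrently, postemergence to plants at 2–10 cm, one- to two-leaf stage. About ten days in greenhouse, then injury visually rated against untreated controls.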

[3] = system: annual bluegrass; test: Test F preemergence test; assay type: in vivo, Poa annua; details: scale 0 to 100
Source text: as §1

[4] = system: field bindweed; test: Test F preemergence test; assay type: in vivo, Convolvulus arvensis; details: scale 0 to 100
Source text: as §1

[5] = system: common ragweed; test: Test C pre-/postemergence test; assay type: in vivo, Ambrosia elation
Procedure, shortened: (§3)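 Seeds were planted and treated preemergence with test chemical in a non-phytotoxic solvent mixture containing surfactant. Postemergence applications of the same formulation went onto plants 2 to 18 cm tall (1- to 4-leaf stage). A dash marks no test result.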

[6] = system: wheat; test: Test C pre-/postemergence test; assay type: in vivo, Triticum aestivum
Procedure, shortened: as §3

[7] = system: purple nutsedge; test: Test F preemergence test; assay type: in vivo, Cyperus rotundus; details: scale 0 to 100
Source text: as §1

[8] = system: giant foxtail; test: Test A pre-/postemergence greenhouse test; assay type: in vivo, Setaria faberi; details: for Foxtail, Giant plant response rating: 0 to 100 scale; for Plant response rating, Foxtail, Giant: 0 to 100 scale where 0 is no effect and 100 is complete control
Procedure, shortened: as §2

[9] = system: southern sandbur; test: Test F preemergence test; assay type: in vivo, Cenchrus echinatus; details: scale 0 to 100
Source text: as §1

[10] = system: common mallow; test: Test F preemergence test; assay type: in vivo, Malva sylvestris; details: scale 0 to 100
Source text: as §1

[11] = Postemergence, 125 g ai/ha, 0 is no effect, 100 is complete control
[12] = Postemergence, 500 g ai/ha, 0 is no effect, 100 is complete control
[13] = Preemergence, 125 g ai/ha, 0 no effect, 100 complete control
[14] = Postemergence, 125 g ai/ha, scale 0 to 100, 0 no effect, 100 complete control
[15] = Postemergence, 250 g ai/ha, scale 0 to 100, 0 no effect, 100 complete control
[16] = 62 g ai/ha, Preemergence, scale 0 to 100
[17] = 125 g ai/ha, preemergence, scale 0 (no effect) to 100 (complete control)
[18] = Preemergence, 31 g ai/ha, scale 0 to 100 (0 no effect, 100 complete control)
[19] = preemergence, 250 g ai/ha, scale 0 (no effect) to 100 (complete control)

Cn1nc(C(F)(F)F)c(C[S+]([O-])c2ccc(Cl)c[n+]2[O-])c1OC(F)F (centres unmarked) [Compound 6]
Plant response rating, Foxtail, Green ([1]; 8 g ai/ha, preemergence): 0 | Foxtail, Green plant response rating ([1]; 62 g ai/ha, Preemergence): 85 | Plant response rating, Foxtail, Green ([1]; Preemergence, 16 g ai/ha): 65 | Plant response rating, Foxtail, Green ([1]; Preemergence, 31 g ai/ha): 80 | Velvetleaf plant response rating [2, 11]: 50 | Velvetleaf plant response rating [2, 12]: 80 | Velvetleaf plant response rating [2, 13]: 90 | Plant response rating, Velvetleaf ([2]; Preemergence, 500 g ai/ha): 100 | Plant response rating, Bluegrass ([3]; 8 g ai/ha, preemergence): 0 | Bluegrass plant response rating ([3]; 62 g ai/ha, Preemergence): 90 | Plant response rating, Bluegrass ([3]; Preemergence, 16 g ai/ha): 10 | Plant response rating, Bluegrass ([3]; Preemergence, 31 g ai/ha): 75 | Plant response rating, Field Bindweed ([4]; 8 g ai/ha, preemergence): 0 | Field Bindweed plant response rating ([4]; 62 g ai/ha, Preemergence): 50 | Plant response rating, Field Bindweed ([4]; Preemergence, 16 g ai/ha): 50 | Plant response rating, Field Bindweed ([4]; Preemergence, 31 g ai/ha): 50 | Ragweed plant response rating ([5]; 31 g ai/ha, Preemergence, scale 0 to 100): 0 | Ragweed plant response rating ([5]; 62 g ai/ha, preemergence, scale 0 (no effect) to 100 (complete control)): 0 | Plant response rating (0 to 100), Ragweed ([5]; Postemergence, 31 g ai/ha): 0 | Plant response rating (0 to 100), Ragweed ([5]; Postemergence, 62 g ai/ha): 0 | Plant response rating, Ragweed [5, 14]: 10 | Plant response rating, Ragweed [5, 15]: 50 | Plant response rating (0 to 100), Ragweed ([5]; Preemergence, 250 g ai/ha): 40 | Ragweed plant response rating ([5]; preemergence, 125 g ai/ha, scale 0 (no effect) to 100 (complete control)): 0 | Plant response rating (0 to 100), Wheat ([6]; Postemergence, 31 g ai/ha): 20 | Plant response rating (0 to 100), Wheat ([6]; Postemergence, 62 g ai/ha): 20 | Plant response rating, Wheat [6, 14]: 20 | Plant response rating, Wheat [6, 15]: 25 | Plant response rating, Purple Nutsedge ([7]; 8 g ai/ha, preemergence): 0 | Purple Nutsedge plant response rating ([7]; 62 g ai/ha, Preemergence): 75 | Plant response rating, Purple Nutsedge ([7]; Preemergence, 16 g ai/ha): 20 | Plant response rating, Purple Nutsedge ([7]; Preemergence, 31 g ai/ha): 20 | Foxtail, Giant plant response rating [8, 11]: 70 | Foxtail, Giant plant response rating [8, 12]: 90 | Foxtail, Giant plant response rating [8, 13]: 100 | Plant response rating, Foxtail, Giant ([8]; Preemergence, 500 g ai/ha): 100 | Plant response rating, Sandbur ([9]; 8 g ai/ha, preemergence): 0 | Plant response rating, Sandbur ([9]; 16 g ai/ha, preemergence): 75 | Sandbur plant response rating ([9]; 62 g ai/ha, Preemergence): 100 | Plant response rating, Sandbur ([9]; Preemergence, 31 g ai/ha): 100 | Plant response rating, Mallow ([10]; 8 g ai/ha, preemergence): 0 | Mallow plant response rating ([10]; 62 g ai/ha, Preemergence): 90 | Plant response rating, Mallow ([10]; Preemergence, 16 g ai/ha): 0 | Plant response rating, Mallow ([10]; Preemergence, 31 g ai/ha): 30

Cn1nc(C(F)(F)F)c(C[S+]([O-])c2ccc(F)c[n+]2[O-])c1OCC(F)(F)F (centres unmarked) [Compound 67]
Plant response rating, Foxtail, Green ([1]; 16 g ai/ha, preemergence): 40 | Foxtail, Green plant response rating ([1]; 62 g ai/ha, Preemergence): 80 | Foxtail, Green plant response rating ([1]; 125 g ai/ha, preemergence): 100 | Plant response rating, Foxtail, Green ([1]; Preemergence, 31 g ai/ha): 60 | Plant response rating, Velvetleaf ([2]; Postemergence, 125 g ai/ha): 60 | Velvetleaf plant response rating [2, 12]: 90 | Velvetleaf plant response rating [2, 13]: 90 | Plant response rating, Velvetleaf ([2]; Preemergence, 500 g ai/ha): 100 | Plant response rating, Bluegrass ([3]; 16 g ai/ha, preemergence): 0 | Bluegrass plant response rating ([3]; 62 g ai/ha, Preemergence): 80 | Bluegrass plant response rating ([3]; 125 g ai/ha, preemergence): 100 | Plant response rating, Bluegrass ([3]; Preemergence, 31 g ai/ha): 0 | Plant response rating, Field Bindweed ([4]; 16 g ai/ha, preemergence): 0 | Field Bindweed plant response rating ([4]; 62 g ai/ha, Preemergence): 35 | Field Bindweed plant response rating ([4]; 125 g ai/ha, preemergence): 80 | Plant response rating, Field Bindweed ([4]; Preemergence, 31 g ai/ha): 10 | Ragweed plant response rating [5, 16]: 100 | Ragweed plant response rating [5, 17]: 100 | Plant response rating (0 to 100), Ragweed ([5]; Postemergence, 31 g ai/ha): 0 | Plant response rating (0 to 100), Ragweed ([5]; Postemergence, 62 g ai/ha): 0 | Plant response rating, Ragweed [5, 14]: 50 | Plant response rating, Ragweed [5, 15]: 55 | Plant response rating, Ragweed [5, 18]: 100 | Ragweed plant response rating [5, 19]: 100 | Wheat plant response rating [6, 16]: 98 | Wheat plant response rating [6, 17]: 100 | Plant response rating (0 to 100), Wheat ([6]; Postemergence, 31 g ai/ha): 25 | Plant response rating (0 to 100), Wheat ([6]; Postemergence, 62 g ai/ha): 30 | Plant response rating, Wheat [6, 14]: 70 | Plant response rating, Wheat [6, 15]: 85 | Plant response rating, Wheat [6, 18]: 40 | Wheat plant response rating [6, 19]: 100 | Plant response rating, Purple Nutsedge ([7]; 16 g ai/ha, preemergence): 0 | Purple Nutsedge plant response rating ([7]; 62 g ai/ha, Preemergence): 60 | Purple Nutsedge plant response rating ([7]; 125 g ai/ha, preemergence): 95 | Plant response rating, Purple Nutsedge ([7]; Preemergence, 31 g ai/ha): 30 | Plant response rating, Foxtail, Giant ([8]; Postemergence, 125 g ai/ha): 90 | Foxtail, Giant plant response rating [8, 12]: 100 | Foxtail, Giant plant response rating [8, 13]: 100 | Plant response rating, Foxtail, Giant ([8]; Preemergence, 500 g ai/ha): 100 | Plant response rating, Sandbur ([9]; 16 g ai/ha, preemergence): 60 | Sandbur plant response rating ([9]; 125 g ai/ha, preemergence): 100 | Plant response rating, Sandbur ([9]; Preemergence, 62 g ai/ha): 100 | Plant response rating, Sandbur ([9]; Preemergence, 31 g ai/ha): 100 | Plant response rating, Mallow ([10]; 16 g ai/ha, preemergence): 0 | Mallow plant response rating ([10]; 62 g ai/ha, Preemergence): 100 | Mallow plant response rating ([10]; 125 g ai/ha, preemergence): 100 | Plant response rating, Mallow ([10]; Preemergence, 31 g ai/ha): 15

Source: patent publication US20100298141A1, “SUBSTITUTED PYRIDINE N-OXIDE HERBICIDES” (E. I. DU PONT DE NEMOURS AND COMPANY, priority 2007, published 2010)
